Results as given in the NIST ThermoML archive (doi:10.1021/acs.jced.5b00542).
± gives the expanded uncertainty stated by the source.

Details: 298.15 K; 101.33 kPa; Liquid; Vibrating tube method

SMILES | mass density [kg/m3]
c1ccccc1 [benzene] | 874 ± 20
C1CCCCC1 [cyclohexane] | 779 ± 20
CCCCCC [hexane] | 659 ± 20
CC(C)O [propan-2-ol] | 798 ± 20
